In ChEMBL document CHEMBL1157539, “Thousands of chemical starting points for antimalarial lead identification” (Nature, 2010) one finds XC50 data, which are given here for 89 molecules.

The assay has as its system Plasmodium falciparum. The experiment in a line: GSK_TCMDC: Inhibition of Plasmodium falciparum 3D7 in whole erythrocytes, using parasite LDH activity as an index of growth. In kind it is functional, organism-based. Conditions: Plasmodium falciparum, 3D7.
`Cc1cc(N/N=C/c2ccccc2[N+](=O)[O-])c2ccccc2n1`: the XC50 is 776 nM.
`CC1CCCN(Cc2c(O)ccc3c(O)c(-c4nc5ccccc5s4)c(=N)oc23)C1` (centres undefined) had an XC50 of 140 nM.
To `COc1ccc(C2CCN(C#N)C2)cc1OC1CCCC1` (centres undefined) belongs 228 nM.
To `CCOc1ccc(NC(=O)c2cn3nc(-c4ccc(OCC)cc4)cc3nc2C2CCNCC2)cc1` belongs 515 nM; to `O=[N+]([O-])c1cccc(-c2nc3cc(C4=NC5CCCCC5N4)ccc3[nH]2)c1` (centres undefined), 195 nM; to `CC(C)c1ccc(NC(=O)N2CCc3ccc(OCCN(C(C)C)C(C)C)cc32)c(Br)c1`, 1090 nM.
The value for `COc1cc(OC)cc(-c2nn(-c3ccc([N+](=O)[O-])cc3C#N)c(=S)n2Cc2ccco2)c1` was 577 nM; that for `Cc1cccc2nc(-c3ccc(-c4ccc(NC(=O)NC5CC5c5ccccc5)cc4)cc3)[nH]c12` (centres undefined) was 876 nM; that for `COc1cccc(NC(=O)c2ccc(NCCCN3CCC(C)CC3)c([N+](=O)[O-])c2)c1` was 770 nM.
`CCCNc1ccc2nccc(CCN3CCC(NCc4ccc5c(n4)NC(=O)CS5)CC3)c2n1` had an XC50 of 720 nM.
To `CN(C)CCOc1cccc(NC(=O)Nc2ccc(-c3ccccc3)cc2)c1` belongs 878 nM; to `CCCNCc1ccc(-c2ccc(CN(CCOC)C(=O)c3nn(-c4ccccc4)nc3C)cc2)nc1`, 725 nM.
In the case of `CCCCc1cc(NCC)nc(Nc2ccc(OC)cc2)n1`, the XC50 stood at 1180 nM.
For `CCOc1ccc(/C=C/C(=O)Nc2cccc3c2CCN(C)C3)cc1`, the XC50 stood at 1110 nM.
To `NC1=NC(Cc2ccccc2)N(c2ccc(Cl)cc2)C(N)=N1` (centres undefined) belongs 137 nM; to `CC1(C)CCC(C)(C)c2c1ccc(C1CCN(CCCCNC(=O)c3ccc(-c4ccc(C#N)cc4)cc3)CC1)c2O`, 226 nM; to `CCN(CCCN1CCCCC1)c1cc(C)nc(Nc2cc(Cl)cc(Cl)c2)n1`, 286 nM.
As to `CC(=O)COc1c(C2CCN(CCCCNC(=O)c3ccc(-c4ccc(C(F)(F)F)cc4)cc3)CC2)ccc2c1CCCC2`, the XC50 was found to be 784 nM.
The value for `CCNCc1cccc(-c2ccc3ccnc(N)c3c2)c1` was 46.9 nM.
Take `COc1ccc2ccccc2c1C=NN=c1cc(C)[nH]c2c(C)cccc12`: the XC50 is 818 nM.
The value for `CC(C)CCN(Cc1cncn1Cc1ccccc1F)C(=O)c1cncc(-c2ccccc2)c1` was 791 nM; that for `CN(C)c1ccc(CN2CCCCC(NC(=O)c3cc(-c4ccccc4F)cs3)C2)cc1` (centres undefined) was 826 nM; that for `CCCC(C)Nc1nc(C)cc(N[C@@H](Cc2ccccc2)C(=O)NCCOc2ccccc2)n1` (some centres undefined) was 699 nM.
To `CC(C)CCNc1nc2ccccc2nc1Nc1cccc(C(F)(F)F)c1` belongs 905 nM.
Molecule `CCCCCCC(C)c1cc(O)c2c(c1)OC(C)(C)C=C2c1ccncc1` (centres undefined) registered an XC50 of 733 nM.
In the case of `Cn1ncc2c3c(CCN4CCC(NCc5cc6c(cn5)OCC6)CC4)c(Cl)cnc3ccc21`, the XC50 was determined as 881 nM.
The value for `CC(=O)Nc1cccc(C(=O)Nc2cccc(-c3ccc(-c4nc5cc(F)ccc5[nH]4)s3)c2)c1` was 896 nM; that for `O=C(/C=C/c1ccc(Cl)c(Cl)c1)NCCCCCCN1CCN(C(=O)Nc2ccc(C(F)(F)F)cc2)CC1` was 397 nM.
To `N#CC(c1ccc(F)cc1)c1ccc2c(C(F)(F)F)cc(C(F)(F)F)nc2n1` (centres undefined) belongs 726 nM; to `Oc1ccc2[nH]c(-c3cccc(F)c3)nc2c1CN1CCCC1`, 795 nM.
For the molecule `Cc1cccc2nc(-c3cccc(-c4cccc(NC(=O)NC5CC5c5ccccc5)c4)c3)[nH]c12` (centres undefined), the XC50 amounted to 705 nM.
As for `CCN(CCCN1CCCCC1)c1cc(C)nc(Nc2ccc(Br)cc2F)n1`, the XC50 was 548 nM.
The value for `CN(C)CCCOc1ccc(CN2CCC(c3c[nH]c4ccc(NCC5CCCCC5)cc34)CC2)cc1` was 678 nM; that for `CCn1cc(C=C2Oc3c(ccc(O)c3CN3CCCCC3)C2=O)c2ccccc21` was 281 nM; that for `CCCOc1ccc(C=C(CC(=O)O)c2nc3ccccc3s2)cc1OCC` was 554 nM.
To `COc1cc(NC(=O)c2ccc(-c3ccc(C(C)=O)cc3)s2)ccc1OCCN1CCCC1` belongs 147 nM.
The value for `COc1cc2nccc(Nc3cccc(Oc4ccccc4)c3)c2cc1OC` was 643 nM; that for `COc1cccc(CNC(=O)c2cnc(N3CCN(c4ccncc4)CC3)c(Cl)c2)c1` was 1150 nM.
In turn, `COc1cc2ncnc(Nc3ccc4nc(Cc5ccccc5)[nH]c4c3)c2cc1OC` showed an XC50 of 1480 nM.
To `CCCCCCNC(=O)c1nn(CCN2CCC(N3CCCC3)CC2)cc1-c1ccc(Cl)c(Cl)c1` belongs 733 nM; to `CCOC(=O)c1ccc(OCCCCCCOc2ccc(Br)cc2)cc1`, 777 nM; to `O=C(Nc1cccc(CN2CCCN(Cc3ccc(O)cc3)CC2)c1)c1ccc(-c2ccccc2)cc1`, 342 nM.
For the molecule `CCC(C)C(COC(=O)c1cc(OC)c(OC)c(OC)c1)N(C)CCN(C)C(COC(=O)c1cc(OC)c(OC)c(OC)c1)C(C)CC` (centres undefined), the XC50 came to 947 nM.
The molecule `Cc1cccc2nc(-c3ccc(-c4ccc(CN5CCC(CO)CC5)cc4)s3)[nH]c12` yielded an XC50 of 812 nM.
On to `CCC(C)NS(=O)(=O)c1ccc2nc(Nc3ccc(C)cc3)n(C3CCCCC3C)c2c1` (centres undefined), for which the XC50 is 592 nM.
To `O=C(Nc1ccccc1F)N(CCCn1ccnc1)Cc1csc(-c2ccc(CNCc3ccccc3)cc2)n1` belongs 841 nM.
For the molecule `COc1ccc2nccc([C@@H](O)CN3CCC(NCc4nc5cc(F)c(F)cc5[nH]4)CC3)c2c1`, the XC50 amounted to 533 nM.
To `CC(C)CCN1CCCN(Cc2ccc(C(=O)Nc3ccc(C(C)(C)C)cc3)cc2)CC1` belongs 867 nM; to `CCCCc1nc2nc(N)nc(N)c2cc1CCC`, 308 nM.
With `O=C(Nc1ccc(Cl)cc1)Nc1cccc(-c2cccc(-c3nc4ccccc4[nH]3)c2)c1`, the XC50 was 131 nM.
The value for `c1cc(CNCCc2ccncc2)cc(-c2csc(-c3nc4ccccc4[nH]3)c2)c1` was 258 nM; that for `Cc1cc(CN2CC[C@H](NC(=O)c3ccc(Cl)c(Cl)c3)C2)ccc1OCCN1CCCC1` was 1160 nM.
In the case of `COc1cc2nc(N3CCN(c4nc(N)c5cc(OC)c(OC)cc5n4)CC3)nc(N)c2cc1OC`, the XC50 amounted to 146 nM.
Regarding `COc1ccc2nccc([C@@H](O)CN3CCC(NCCc4c[nH]c5ccccc45)CC3)c2c1`, the XC50 worked out at 210 nM.
To `CC(=O)Nc1ccc(CN(Cc2ccc(F)cc2)Cc2ccc3c(c2)OCO3)cc1` belongs 943 nM.
For `CC(C)NCC(O)Cn1c2ccc(Br)cc2c2cc(Br)ccc21` (centres undefined), the XC50 came out at 451 nM.
Turning to `CN1CCN(c2ccnc3ccc(NC(=O)Nc4ccc5c(c4)CCCC5=O)cc23)CC1`, the XC50 was determined as 132 nM.
The value for `CN(C)CCN(C)Cc1ccc(-c2ccc(NC(=O)c3ccc(Cl)cc3)cc2)cc1` was 943 nM; that for `COc1cc2nccc(Nc3ccc4c(cnn4Cc4cccc(F)c4)c3)c2cc1OC` was 237 nM.
Turning to `c1ccc2c3c(ccc2c1)Sc1c(ccc2ccccc12)N3`, the XC50 turned out to be 1070 nM.
The value for `COc1ccc(-c2nonc2NC(=O)c2ccc(OC(C)C)cc2)cc1OC` was 635 nM; that for `CCCN(CCC)CCCNc1ccc(C(=O)Nc2ccc(OCC)cc2)cc1[N+](=O)[O-]` was 992 nM.
The value for `COc1ccc(OCCn2cc(C(=O)c3ccco3)c3ccccc32)cc1` was 773 nM.
The value for `COc1cc(CCNC(=N)/C=C/c2ccc(Cl)cc2)ccc1Cl` was 241 nM; that for `Cc1cnc(C(=O)Nc2cccc(-c3cccc(-c4nc5cccc(C)c5[nH]4)c3)c2)cn1` was 579 nM; that for `O=C1Nc2cccc3c2C1(CCCCCN1CC=C(c2c[nH]c4ccccc24)CC1)CCC3` (centres undefined) was 740 nM.
For the molecule `c1ccc2[nH]c(-c3ccc(-c4ccc(CN5CCN(CCN6CCOCC6)CC5)cc4)s3)nc2c1`, the XC50 stood at 280 nM.
The value for `CCCCCCCCS(=O)(=O)NCCCC1CCN(CCCCCNC(=O)C=Cc2ccc(Cl)c(Cl)c2)CC1` was 858 nM.
As to `Cc1cc(C2CCCCN2C)ccc1-c1ccc(C(=O)N2CCc3cc4c(cc32)C2(CCN(C)CC2)CO4)cc1` (centres undefined), the XC50 amounted to 791 nM.
For the molecule `O=C(/C=C/c1ccc(Cl)c(Cl)c1)NCCCCCN1CCCC(CNC(=O)c2sc3ccccc3c2Cl)C1` (centres undefined), the XC50 was 870 nM.
Molecule `N=C(NCCc1ccc(Cl)c(Cl)c1)c1ccc2ccccc2c1` had an XC50 of 514 nM.
To `CC(Cc1ccc(OCCCCOc2ccccc2)cc1)NCCc1ccccc1Cl` (centres undefined) belongs 175 nM; to `O=C(O)CNCC(O)c1ccccc1` (centres undefined), 184 nM.
With `CCCn1cnc2cc(C(=O)Nc3ccc(-c4cccc(CN(C)C)c4)cc3)ccc2c1=O`, the XC50 stood at 928 nM.
To `COc1ccc(C2NCCc3c2[nH]c2ccccc32)cc1CN1CCN(c2ccc(F)cc2)CC1` (centres undefined) belongs 776 nM.
To `CN(C)CCc1c[nH]c2ccc(C(=O)Nc3ccc(-c4ccncc4)cc3)cc12` belongs 567 nM; to `CCc1nnc2sc(-c3cccc(NC(=O)c4ccc(OC)c(Cl)c4)c3)nn12`, 1140 nM.
The value for `CCOc1cc(-c2nnc3[nH]c(=O)n(C)c(=O)c3n2)ccc1OC(C)C` was 400 nM; that for `FC(F)(F)c1cccc(CNCCCCCNCc2ccc(Cl)cc2)c1` was 1030 nM.
Take `CCc1ccc(CN2CCC(CNC(=O)c3cc(-c4ccccc4Cl)cs3)C2)cc1` (centres undefined): the XC50 was determined as 1430 nM.
`CCOC(=O)C(=O)N1c2ccc(OCC)cc2-c2c(ssc2=S)C1(C)C`: the XC50 stood at 216 nM.
`COC(=O)c1cccc(NC(=O)NC2CCN(c3ccnc(Nc4ccc(F)cc4)n3)C2)c1` (centres undefined): the XC50 was 500 nM.
The value for `CC(Cc1ccc(SC(C)C)cc1)NCC(O)c1cccc(Cl)c1` (centres undefined) was 827 nM; that for `COc1ccccc1C1CN(CCNC(=O)c2nc(C)c[nH]2)Cc2ccccc2O1` (centres undefined) was 797 nM; that for `Cc1cccc2nc(-c3ccc(-c4ccc(NC(=O)c5cncn5C)cc4)s3)[nH]c12` was 670 nM.
As for `CCCCCCNC(=O)C1Cc2c([nH]c3ccc(F)cc23)C2(CCN(Cc3ccccc3)CC2)N1` (centres undefined), the XC50 amounted to 871 nM.
In the case of `CN(c1ccccc1C(=O)Nc1ccccc1Oc1ccccc1)S(=O)(=O)c1ccccc1`, the XC50 was determined as 1150 nM.
To `Cc1cc(NC(=O)Nc2ccc(I)c(OCCN(C)C)c2)ccc1Br` belongs 625 nM; to `Cc1ccc(N2CCc3c(-c4cc5cccnc5nc4C)cc(C)nc32)c(Cl)c1`, 577 nM.
